In US5356781A, “Zymogen activation peptides (ZAP) in the diagnosis of disease” (Bioscience International, Inc., priority 1986, dated 1994):
One block for each molecule: values may come before it. Where no end group is shown, it is not given here.

Tests used:
[1] = tested on: affinity-purified Ca^2+ -dependent antibodies present in sera from rabbit 1 (anti-D4 K); experiment: Solution phase competitive immunoradiometric assay: competition of binding to 125I-YD4 K, precipitation with second antibody; details: Ca2+-dependent antibodies from rabbit 1; FIG. 3; read-out: IC50, displacement of binding to 125I-YD4 K
Experimental: The relative affinities of affinity-purified Ca^2+ -dependent antibodies present in sera from rabbit 1 for various peptides was examined by determining competition of binding to ^125 I-YD4 K, measured by precipitation with a second antibody, donkey anti-rabbit. […] Some binding to Asp2 Lys was seen.
100 μl of a 1:250 dilution of anti-D4 K antiserum or a dilution of affinity-purified anti-D4 K antibodies in 50mM Tris-Hcl, 20mM CaCl2, 0.1% (w/v) BSA, pH 7.4 (RIA buffer) were added to 100 μl of ^125 I-YD4 K, (10,000 cpm) in RIA buffer containing 0.2% (v/v) normal rabbit serum in polystyrene tubes. Then 100 μl of solutions containing various concentrations of standard peptides or unknown plasma samples diluted in RIA-buffer were added, followed by 50 μl of donkey anti-rabbit Ig serum (Wellcome Biotechnology) diluted 1:10 with RIA-buffer with 0.2% normal rabbit serum. The mixtures were incubated 18 hours at 4° C., then the tubes were centrifuged at 3,000 rpm for 45 minutes at 4° C., and the supernatants aspirated. The radioactivity in the precipitates was determined in an LKB rack-gamma counter.

[2] = Incubation in human serum (immunoreactivity; Sephadex G-100 chromatography); type: in vitro ADME
Experimental: Immunoreactive D4 K was unaltered by incubation with undenatured human serum at 37° C. for 6 hours and 4° C. for 48 hours.

in vivo = details: rat, iv
Experimental: To determine the fate of circulating peptide, D4 K (0.28 ml, 1 mg/ml) was injected into the left femoral vein of rats under phenobarbital anaesthesia. Blood samples (0.5 ml) were collected every 15 minutes for 2 hours, and subjected to immunoassay.

[3] = type: in vitro ADME
Experimental: The stability of APFD4 K and D4 K were examined by incubation with activated pancreatic juice, and the chemical identity of the product examined by high-voltage paper electrophoresis at pH 6.5. […] In three separate experiments, duplicate 65 to 75 mg portions of fresh dog pancreas were placed in modified Bank's medium and incubated in the presence or absence of 100 units enterokinase (Sigma Chem. Co. […]) at 37° C. for 4 hours and 22° C. for a further 20 hours. Duplicate 100 ul samples of culture medium supernatant were taken at intervals, diluted 2:1 with RIA buffer, boiled for 10 minutes and centrifuged. Supernatants were then stored at -20° C. prior to assay for D4 K peptides.

anti-D4 K antibodies = experiment: Displacement of 125I-YD4 K binding by trypsinogen with and without enteropeptidase activation; parameters: species or system rabbit
Experimental: Of great importance to the general principle of the PAP assay of which this is an example, and for the application of these specific anti-D4 K antibodies to the diagnosis of pancreatic disease was the finding that anti-D4 K antibodies were […] on the peptide, and were not displaced by trypsinogen (where the peptide is C-terminally bound to the protein) in concentrations of the zymogen of up to 100 μg/ml. Upon incubation of trypsinogen with enteropeptidase, however, released D4 K-containing activation peptides actively displaced the binding of synthetic ^125 I-YD4 K giving 50% displacement after activation of a 2 μg/ml solution of trypsinogen (FIG. 4). Trypsinogen in native dog pancreatic juice was also activated by enteropeptidase (FIG. 4) releasing immunoreactive D4 K peptides, giving 50% displacement in competitive solution-phase immunoassay after activation of 10^-8 L pancreatic juice. The novel D4 K-specific antibodies described here therefore also provide a new sensitive assay for enteropeptidase and trypsinogen applicable to fluids with endogenous trypsin inhibitors. […]

IC50 [1]: > 100 µM
Molecule: N[C@@H](CC(=O)O)C(=O)O [Asp, Aspartic Acid]

Molecule: YDDDDK [YD4 K]
complexing with a serum component ([2]; Sephadex G-100 chromatography after incubation in human serum): did not complex with a serum component

IC50 [1]: > 100 µM
Molecule: poly-Asp

stability of immunoreactive peptide in undenatured human serum ([2]; 4° C. for 48 hours): unaltered | stability of immunoreactive peptide in undenatured human serum ([2]; 37° C. for 6 hours): unaltered | half-life (in vivo): ~15 min
Molecule: DDDDK [D4 K, Asp-Asp-Asp-Asp-Lys]

Molecule: APFDDDDK [APFD4 K, Ala-Pro-Phe-Asp-Asp-Asp-Asp-Lys]
stability in activated pancreatic juice (identity of product) [3]: rapidly converted to free Ala, Pro and Phe and D4 K

IC50 [1]: > 100 µM
Molecule: NCCCC[C@H](N)C(=O)O [Lys, Lysine]

concentration of solution giving 50% displacement of 125I-YD4 K (anti-D4 K antibodies; after incubation of trypsinogen with enteropeptidase, FIG. 4): 2 µg/mL | concentration up to which antibodies were not displaced (anti-D4 K antibodies; trypsinogen without enteropeptidase activation): > 100 µg/mL
B1: trypsinogen: zymogen in which the D4 K peptide is C-terminally bound to the protein (protein, UniProt P00760 18-246, looked up)
pro-form: VDDDDKIVGGYTCGANTVPYQVSLNSGYHFCGGSLINSQWVVSAAHCYKSGIQVRLGEDNINVVEGNEQFISASKSIVHPSYNSNTLNNDIMLIKLKSAASLNSRVASISLPTSCASAGTQCLISGWGNTKSSGTSYPDVLKCLKAPILSDSSCKSAYPGQITSNMFCAGYLEGGKDSCQGDSGGPVVCSGKLQGIVSWGSGCAQKNKPGVYTKVCNYVSWIKQTIASN
modifications: pro-form
